Data reported in patent US8383130B2, “Partial peptide of lacritin” (Senju Pharmaceutical Co., Ltd., priority 2008, dated 2013).

How the values were obtained:
Format in all cases: cell-based
[1] = test system: human corneal epithelial cells (HCE-T); test: Adhesion of human corneal epithelial cell to extracellular matrix (Experimental Example 1); conditions: polypeptide 100 μg/mL, 50 μL per well, collagen type IV coated plate, 37° C. 20 min, MTT assay, no addition of polypeptide = 100%
Procedure: An extracellular matrix solution (10 μg/mL, collagen type IV: Becton, Dickinson and Company) was added to a 96 well plate (Iwaki Glass Company, Limited). The solution was incubated at 37° C. for 1 hr to coat the plate with the extracellular matrix. After the redundant extracellular matrix solution was removed, 0.1% BSA solution (Sigma-Aldrich Co.) was added to block the region not coated with the extracellular matrix. Successively, the BSA solution was removed and the plate was washed twice with PBS, and polypeptides 1-5 (concentration 100 μg/mL) synthesized in Example 1 and Comparative Example 1 were added by 50 μL per well. Furthermore, established human corneal epithelial cells (HCE-T: can be prepared by the method described in Invest Ophthalmol Vis Sci. 1995, 36, 614) were cultured overnight under serum-free conditions and added to the plate at 2×10^4 cells/100 μL DMEM/F12 medium/well. The plate was incubated at 37° C. for 20 min to allow adhesion of the cells to the plate. The number of the adhered cells was counted by MTT assay (DOJINDO LABORATORIES).

[2] = test system: human corneal epithelial cells (HCE-T); test: Adhesion of human corneal epithelial cell to extracellular matrix (Experimental Example 2); conditions: polypeptide 10 μM in PBS, 50 μL per well, collagen type IV coated plate, 37° C. 25 min, MTT assay, no addition of polypeptide = 100%
Procedure: An extracellular matrix solution (10 μg/mL, collagen type IV: Becton, Dickinson and Company) was added to a 96 well plate (Iwaki Glass Company, Limited). The solution was incubated at 37° C. for 1 hr to coat the plate with the extracellular matrix. After the redundant extracellular matrix solution was removed, 0.1% BSA solution (Sigma-Aldrich Co.) was added to block the region not coated with the extracellular matrix. Successively, the BSA solution was removed and the plate was washed three times with PBS, and polypeptides 4, 6 and 7 synthesized in Example 2 and Comparative Example 1 were suspended in PBS to a final concentration of 10 μM, and the suspension was added by 50 μL per well. Furthermore, established human corneal epithelial cells (HCE-T: can be prepared by the method described in Invest Ophthalmol Vis Sci. 1995, 36, 614) were cultured overnight under serum-free conditions and added to the plate at 2×10^4 cells/100 μL DMEM/F12 medium/well. The plate was incubated at 37° C. for 25 min to allow adhesion of the cells to the well. The number of the adhered cells was counted by MTT assay (DOJINDO LABORATORIES).

[3] = test system: monkey lacrimal gland acinar cells; test: Secretion of tear protein (lactoferrin) from monkey lacrimal gland acinar cells; conditions: 1 μM polypeptide; for lactoferrin secretion amount (ng/10^5 cells): 37° C. 10 min, westernblot, human lactoferrin as standard
Procedure: Monkey lacrimal gland was chopped in a DMEM/F12 medium (Invitrogen Corporation) and treated with HBSS (Invitrogen Corporation) containing 0.76 mg/mL EDTA (Sigma-Aldrich Co.) and DMEM/F12 medium containing 200 U/mL collagenase A (Roche), 698 U/mL Hyarulonidase (Worthington Biochemical Corporation) and 10 U/mL DNase (Roche Diagnostics K.K.), and the cells were isolated. 1×10^6 cells were sown on a 6 well plate (ASAHI GLASS CO., LTD.) coated with 0.01 mg/cm^2 Collagen I (Becton, Dickinson and Company), and cultured in a CO2 incubator at 37° C. overnight. The next day, the medium was changed to a supplement-free DMEM/F12 medium and the cells were pre-incubated at 37° C. for 30 min, and then incubated in a DMEM/F12 medium containing 1 μM polypeptide 1 or 4 at 37° C. for 10 min. Lactoferrin as a tear protein secreted in the medium was detected by westernblot, and quantified using human lactoferrin (Sigma-Aldrich Co.) as the standard. The collected medium was purified by 2D clean up kit (Bio-Rad Laboratories, Inc.), dissolved in NuPAGE LDS sample buffer (Invitrogen Corporation), and thermally denatured at 70° C. for 10 min. An equivalent amount of a sample was electrophoresed in 4-12% NuPAGE Bis Tris gel in MES buffer (Invitrogen Corporation) at 200 V for 35 min, and blotted on a PVDF membrane (Nihon Millipore K.K.) at 100 V for 60 min using Trans Blot Mini Cell (Bio-Rad Laboratories, Inc.). The membrane was blocked with TTBS (Bio-Rad Laboratories, Inc.) containing 5% skim-milk (Bio-Rad Laboratories, Inc.) at room temperature for 30 min, and reacted overnight at 4° C. with lactoferrin antibody (manufactured in rabbit, Sigma-Aldrich Co.) diluted 1000-fold. After washing the membrane with TTBS, the membrane was reacted at room temperature for 60 min with secondary antibody of anti-rabbit HRP, which was diluted 5000-fold. Then detection using ECL plus (GE healthcare) was performed. In addition, the amount of the secreted lactoferrin was quantified by forming an analytical curve of human lactoferrin on the same membrane, and comparing the density of the bands.

Sequence | cell adhesion rate (%) [1] | cell adhesion rate (%) [2] | lactoferrin secretion amount (ng/10^5 cells) [3] | promotion of secretion of lactoferrin (in words) ([3]; 10 min)
EISGPAEPASPPETTTTAQETSAAAVQGTAKVT (listed as Homo sapiens) [polypeptide 4, reference compound] | 100% | 107% | 2.79 ng/10^5 cells | –
EISGPAEPASPPETTTTAQETSAAAVQGTAKVTSSRQELNPLKSIVEKSILLTEQALAKA (listed as Homo sapiens) [polypeptide 7] | – | 190% | – | –
QGTAKVTSSRQELNPL (listed as Homo sapiens) [polypeptide 5, reference compound] | 98% | – | – | –
QGTAKVTSSRQELNPLKSIVEKSILLTEQALAKA (listed as Homo sapiens) [polypeptide 6] | – | 160% | – | –
QGTAKVTSSRQELNPLKSIVEKSILLTEQALAKAGKGMHGGVPGG (listed as Homo sapiens) [polypeptide 2] | 134% | – | – | –
QGTAKVTSSRQELNPLKSIVEKSILLTEQALAKAGKGMHGGVPGGKQFIENGSEF (listed as Homo sapiens) [polypeptide 3] | 147% | – | – | –
VQGTAKVTSSRQELNPLKSIVEKSILLTEQALAKA (listed as Homo sapiens) [polypeptide 1] | 147% | – | 11.7 ng/10^5 cells | promoted the secretion of lactoferrin
